Assay results taken from patent US20240024216A1, “METHODS AND MATERIALS FOR TREATING HAIR LOSS” (The Penn State Research Foundation, priority 2021, published 2024).

Experiments:
[1] = test system: wound healing mouse skin sections; assay: Immunostaining and western blot of day 14 wound tissue markers; type: in vivo, mice
Protocol: Briefly, immunohistochemical and immunofluorescence analysis were performed on 5 μm thick wound healing mouse skin sections. The sections were deparaffinized and subjected to an antigen retrieval process by using sodium citrate buffer at 95° C. followed by immersed in 0.5% triton X-100. The section slides were blocked using 5% goat serum in 0.1% PBS-T for 1 hour. The following primary antibodies mouse monoclonal [LL002] anti-Cytokeratin14 (catalog No.—ab7800; IF-1:100), rat CD31 antibody (Catalog No.—553370; IF-1:100), mouse S100 antibody (Catalog No.—MA5-12969; IF-1:200), rabbit nerve growth factor receptor—p75-NTR antibody (Catalog No.—AB1554; IF and WB-1:500), Chicken neurofilament Heavy-NFH antibody (Catalog No.—NB300-217; IF-1:500), mouse alpha-smooth muscle actin —α-SMA antibody (Catalog No.—14-9760-82; IF-1:200 and WB-1:500), mouse TGF beta antibody (Catalog No.—27969; IF-1:100 and WB-1:500), rabbit Ki67 antibody (Catalog No.—9129S; IF-1:400), chicken keratin 15 antibody (Catalog No. —833901; IF-1:500), rabbit K17 antibody (gift from Pierre a. coulombe Lab; IF-1:1000), rabbit interleukin-1 beta antibody (Catalog No.—GTX74034; IF-1:100), rat F4/80 antibody (Catalog No.—MCA497GA; IF-1:100), mouse anti-SOX10 antibody (Catalog No.—sc-365692; IF-1:100 and WB-1:200), chicken anti-myelin basic protein antibody (Catalog No.—MBP; IF-1:1000), rabbit vimentin antibody (Catalog No.—10366-1-AP; IF-1:200), rabbit NGF antibody (Catalog No.—MA5-32067; IF-1:100 and WB-1:1000), mouse PGP 9.5 antibody (Catalog No.—PA5-29012; IF-1:200), chicken anti-P-zero myelin protein antibody (Catalog No.—PZO; IF-1:200), and rat substance P antibody (Catalog No. —NB100-65219; IF-1:100) were overnight incubated with 5% BSA in 0.1% PBS-T for IF stain and/or 5% skimmed milk in 0.1% TBS-T for Western blot at 4° C., then incubated with secondary antibodies for 1 hour at room temperature. The ProLong™ Gold Anti-fade Mountant with DAPI (Invitrogen, Caltlog No. P36935) used as nuclear counterstain. The immunofluorescence stained sections were imaged using ZEISS Axio Observer 7—Axiocam 506 mono—Apotome.2 microscope. The image analysis and quantification were formed either using ZEN 2.6 pro (Zeiss) imaging software or ImageJ-1.53e software (National Institutes of Health, USA).
For protein isolation the harvested skin tissue was flash frozen immediately. The frozen skin tissue ground to a fine power using a liquid nitrogen mortar. The harvested cells and/or tissue powder dissolved in RIPA buffer containing Halt™ Phosphatase (Thermo Scientific, Catlog No. 78420,) and Protease Inhibitor Cocktail (Roche complete tablets mini EASYpack, Catlog No. 04694124001). Tissue and cell debris removed by centrifuged at 14000 rpm for 30 minutes at 4° C. The supernatant was collected and the total protein concentration was determined by BCA protein assay (Thermo Scientific™ Pierce™, Catlog No. 23225). The proteins (20-30 μg) of the tissue protein samples were subjected to 12% sodium dodecyl sulfate polyacrylamide gel electrophoresis (Bio-Rad mini-PROTEAN TGX Gels, Catlog No. 4561044) and transferred to polyvinylidene fluoride (PVDF) membranes. After the membranes were blocked with 5% skimmed milk in 1×TBS-T for 1 hour, they were incubated with the appropriate primary antibodies (1:200-1:1000) at 4° C. overnight, then incubated with HRP-conjugated secondary antibodies (1:3000) for 1 hour. Immunoreactivity was then detected using chemiluminescent substrate (Thermo Scientific™ SuperSignal™ West Pico PLUS, Catlog No. 34577). The intensities of the bands were quantified using Gel-imaging software. The quantified band intensity were normalized using GAPDH and expressed either normalized intensity or ratios with respect to saline treated mice.

[2] = test system: keratinocytes, Schwann cells and fibroblast; assay: Cell viability MTT assay; type: cell-based, human; conditions: concentrations of 4-AP used in vitro; 24 hours
Protocol: The keratinocytes, Schwann cells and fibroblast were culture on 96-well plates, the wells were pre-coated with respective coating matrix in complete growth medium and incubated cells for 12-18 hours at 37° C. in 5% CO2 incubator. Cells were washed with PBS and added basal Schwann cells/fibroblast/keratinocytes medium to starve, then incubated for 4 hours at 37° C. with 5% CO2. After the incubation period, various concentrations of 4-AP (concentrations ranging from 1 to 10000 μM) in 100 μL containing respective medium's (complete keratinocytes, Schwann cells and fibroblast medium), cells were incubated either 24 hours at +37° C. and 5% CO2 incubator. After completion of incubation time, 10 μL of the MTT labeling reagent (final concentration 0.5 mg/ml) was added to each well and incubate at +37° C. for 4 hours in a humidified atmosphere. Then, 100 μL of the solubilization solution into each well and allow the plate to stand in the incubator overnight or until the formazan crystals had dissolved. […] The formazan absorbance was read using wavelength of 550 nm in a plate reader. The color of optical density (OD) is directly propositional to number of live cells. The percentage of live keratinocytes/Schwann cells/fibroblast cells was determined using the following formula. […]

[3] = test system: keratinocytes co-cultured with fibroblasts (10:1); assay: Co-culture scratch assay, keratinocytes with fibroblasts; type: cell-based, human; conditions: measured at 15 hours; 72% in non-treated
Protocol: To determine the influence of Schwann cells and fibroblast on keratinocytes migration and proliferation wound healing scratch assay was conducted. The co-culture experiment performed in Keratinocytes to either Schwann cells or fibroblasts in a ratio of 10:1 with same proposition of their respective medium were seeded on 96-well ImageLock microplate for 6 hours and the wells were pre-coated with collagen-I plate. For the drug treatment cells were pretreated with 4-AP prior to coating for 16-18 hours. Next, the wound scratch was created and treated cells with and without 4-AP in medium. Imaged for every hour until 24 hour and analyzed for percent of closure as described above procedure.

[4] = day 14, vs saline treated controls

Nc1ccncc1 [4-AP, 4-aminopyridine]
keratinocyte K10 expression in healed epidermis ([1]; day 14): did not cause any change
levels of PGP 9.5 compared with uninjured tissue ([1]; day 14): not significantly different
K17 expressing cells ([1]; day 14, vs control group): more abundant
inflammatory cells (IL-1β) and macrophages (F4/80) in granulation tissue ([1]; day 14, vs control wounds): less of inflammatory cells and macrophages
fold increase in Ki-67+ [1, 4]: 2 fold
fold increase in NF-H axonal counts [1, 4]: 2.5 fold
fold increase in S100+ cells [1, 4]: 3 fold
increase in K15+ cells [1, 4]: two fold increase
SOX10 expression ([1]; day 14, vs saline treated mice): Significantly increased
fold increase in NGF expression ([1]; day 14, vs saline treated mice): 4 fold
substance-P expression ([1]; day 14, vs saline treated mice): Significantly increased
fold increase in K14+ keratinocytes ([1]; day 14, vs saline-treated mice): 2.5 fold
double positive (S100+, p75-NTR+) SCs ([1]; day 14, vs saline, confirmed by WB for p75-NTR): increased numbers
K14+ keratinocytes ([1]; day 14 wound bed): 13.72±1.403%
Ki-67+ in hair follicle bulges and epidermis ([1]; day 14 wound tissue): 21.87±2.763 cells/mm^2
NF-H axonal counts ([1]; day 14 wound tissue): 194±50.51 count/mm^2
NGF expression ([1]; day 14 wound tissue): 2429872±375280 integrated density/mm^2
S100+ cells around nerve bundles ([1]; day 14 wound tissue): 6.483±1.163 % positive cells
CD31 intensity (blood vessels) ([1]; day 14 wound tissue, vs saline): statistically significant increases
TGF-β protein expression ([1]; day 14 wound tissue, vs saline): significant increases
vimentin-positive fibroblasts ([1]; day 14 wound tissue, vs saline): more vimentin-positive fibroblasts
α-SMA-positive myofibroblasts ([1]; day 14 wound tissue, vs saline): more
PGP 9.5+ nerve fibres ([1]; fourteen days post wound): 4096938±713297 integrated density/mm^2
PGP 9.5+ nerve fibres relative to saline treated mice ([1]; fourteen days post wound): twice as abundant
cell viability [2]: not affected
scratch closure [3]: 93%
